Test results published in ChEMBL document CHEMBL1201862, “PubChem BioAssay data set” (2004).
Several values for one entry are separate records, joined by “and”; a condition that tells them apart may be missing. Identical values can stand only once.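 Test compounds were applied to cells in 96-well plates for 48 hours at 5 doses. Abbreviation: GI50, concentration required for 50% inhibition of growth.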 Activity calls are given as the source filed them. Cut-off read from the data, not from the text of the source: active = GI50 up to about 1.1 µM and inactive = higher.

Assays:
Experiment in all cases: growth of human tumour cells (NCI), 48 h
[1] = test system: OVCAR-5
[2] = test system: OVCAR-3
[3] = test system: MDA-N
[4] = test system: SW-620
[5] = test system: IGROV-1
[6] = test system: HT-29
[7] = test system: HOP-92
[8] = test system: HCC 2998
[9] = test system: RPMI-8226
[10] = test system: UACC-62
[11] = test system: EKVX
[12] = test system: SR
[13] = test system: TK-10
[14] = test system: SF-295
[15] = test system: LOX IMVI
[16] = test system: NCI-H226
[17] = test system: SF-539
[18] = test system: SNB-19
[19] = test system: HCT-116
[20] = test system: SK-OV-3
[21] = test system: NCI-H460
[22] = test system: NCI-H522
[23] = test system: OVCAR-8
[24] = test system: RXF 393
[25] = test system: A549
[26] = test system: SK-MEL-5
[27] = test system: COLO 205
[28] = test system: UO-31
[29] = test system: UACC-257
[30] = test system: CCRF-CEM
[31] = test system: DU-145
[32] = test system: SNB-75
[33] = test system: NCI/ADR-RES
[34] = test system: U-251
[35] = test system: SF-268
[36] = test system: K562
[37] = test system: SN12C
[38] = test system: ACHN
[39] = test system: PC-3
[40] = test system: MOLT-4
[41] = test system: KM12
[42] = test system: OVCAR-4
[43] = test system: A498
[44] = test system: Hs-578T
[45] = test system: MCF7
[46] = test system: SK-MEL-28
[47] = test system: SK-MEL-2
[48] = test system: CAKI-1
[49] = test system: Malme-3M
[50] = test system: HCT-15
[51] = test system: HL-60
[52] = test system: MDA-MB-435
[53] = test system: 786-0
[54] = test system: NCI-H23
[55] = test system: T47D
[56] = test system: M14
[57] = test system: HOP-62
[58] = test system: MDA-MB-231

CN(NC(=O)CC(=O)NN(C)C(=S)c1ccccc1)C(=S)c1ccccc1 [ELESCLOMOL]
GI50 [1]: > 100 µM (inactive) | GI50 [2]: > 100 µM (inactive) | GI50 [3]: > 100 µM (inactive) | GI50 [4]: 67 µM (inactive) | GI50 [5]: > 100 µM (inactive) | GI50 [6]: < 0.01 µM (active) | GI50 [7]: > 100 µM (inactive) | GI50 [8]: 64.7 µM (inactive) | GI50 [9]: < 0.01 µM (active) | GI50 [10]: 50.2 µM (inactive) | GI50 [11]: 33.9 µM (inactive) | GI50 [12]: 28.3 µM (inactive) | GI50 [13]: > 100 µM (inactive) | GI50 [14]: 46 µM (inactive) | GI50 [15]: 35.4 µM (inactive) | GI50 [16]: 83.8 µM (inactive) | GI50 [17]: > 100 µM (inactive) | GI50 [18]: 84.7 µM (inactive) | GI50 [19]: 62.1 µM (inactive) | GI50 [20]: > 100 µM (inactive)

Cc1ccc(S(=O)(=O)NCCSCCSCCNS(=O)(=O)c2ccc(C)cc2)cc1
GI50 [3]: 56 µM (inactive) | GI50 [21]: 25.4 µM (inactive) | GI50 [22]: 62.5 µM (inactive) | GI50 [23]: 47.2 µM (inactive) | GI50 [24]: 56.2 µM (inactive) | GI50 [4]: 44.6 µM (inactive) | GI50 [25]: 30.5 µM (inactive) | GI50 [26]: 4.7 µM (inactive) | GI50 [27]: 19.4 µM (inactive) | GI50 [28]: 34.1 µM (inactive) | GI50 [29]: 34.4 µM (inactive) | GI50 [30]: 36.9 µM (inactive) | GI50 [31]: 51.2 µM (inactive) | GI50 [6]: 28.6 µM (inactive) | GI50 [32]: 20.8 µM (inactive) | GI50 [33]: 24 µM (inactive) | GI50 [34]: 4.6 µM (inactive) | GI50 [35]: 24 µM (inactive) | GI50 [36]: 48.6 µM (inactive) | GI50 [37]: 47.4 µM (inactive) | GI50 [38]: 48.6 µM (inactive) | GI50 [39]: 22.6 µM (inactive) | GI50 [7]: 22 µM (inactive) | GI50 [8]: 39.4 µM (inactive) | GI50 [40]: 34 µM (inactive) | GI50 [41]: 25.6 µM (inactive) | GI50 [42]: 34.8 µM (inactive) | GI50 [12]: 37.2 µM (inactive) | GI50 [43]: 10 µM (inactive) | GI50 [13]: 53.2 µM (inactive) | GI50 [14]: 45.8 µM (inactive) | GI50 [44]: 47.2 µM (inactive) | GI50 [15]: 25.4 µM (inactive) | GI50 [16]: 49 µM (inactive) | GI50 [45]: 38.9 µM (inactive) | GI50 [18]: 63.4 µM (inactive) | GI50 [46]: > 100 µM (inactive) | GI50 [19]: 34.7 µM (inactive) | GI50 [20]: 18.4 µM (inactive)

CN(C)c1ccc(/C=C/c2sc3ccccc3[n+]2C)cc1
GI50 [47]: 2.82 µM (inactive) and 2.29 µM (inactive) | GI50 [1]: 12.7 µM (inactive) and 10.3 µM (inactive) | GI50 [48]: 2.52 µM (inactive) and 3.33 µM (inactive) | GI50 [2]: 550 nM (active) and 501 nM (active) | GI50 [3]: 1.16 µM (inactive) | GI50 [22]: 1.93 µM (inactive) and 1.58 µM (inactive) | GI50 [4]: 433 nM (active) and 427 nM (active) | GI50 [25]: 2.2 µM (inactive) and 3.82 µM (inactive) | GI50 [26]: 1.09 µM (active) and 1.7 µM (inactive) | GI50 [49]: 1.54 µM (inactive) and 1.96 µM (inactive) | GI50 [29]: 1.82 µM (inactive) and 1.6 µM (inactive) | GI50 [33]: 36.9 µM (inactive) and > 57 µM (inactive) | GI50 [50]: 4.75 µM and 9.27 µM | GI50 [35]: 3.29 µM (inactive) and 3.4 µM (inactive) | GI50 [38]: 1.46 µM (inactive) and 2.2 µM (inactive) | GI50 [39]: 1.09 µM (active) and 838 nM (active) | GI50 [7]: 3.65 µM (inactive) and 1.85 µM (inactive) | GI50 [51]: 180 nM (active) and 348 nM (active) | GI50 [52]: 813 nM (active) and 879 nM (active) | GI50 [40]: 270 nM (active) and 238 nM (active) | GI50 [42]: 2.62 µM (inactive) and 2.71 µM (inactive) | GI50 [43]: 14.9 µM (inactive) and 12.6 µM (inactive) | GI50 [53]: 1.82 µM (inactive) and 1.61 µM (inactive) | GI50 [13]: 5.65 µM (inactive) and 3.37 µM (inactive) | GI50 [14]: 3.29 µM (inactive) and 6.35 µM (inactive) | GI50 [54]: 1.07 µM (active) and 743 nM (active) | GI50 [44]: 4 µM (inactive) and 7.62 µM (inactive) | GI50 [16]: 3.71 µM (inactive) and 2.62 µM (inactive) | GI50 [17]: 3.18 µM (inactive) and 4.18 µM (inactive) | GI50 [55]: 2.47 µM (inactive) and 4.05 µM (inactive) | GI50 [18]: 2.09 µM (inactive) and 1.99 µM (inactive) | GI50 [46]: 1.85 µM (inactive) and 3.44 µM (inactive) | GI50 [20]: 4.56 µM (inactive)

CCC1(c2ccccc2)Sc2ccccc2-n2cccc2C1=O (stereo not given)
GI50 [48]: > 10 µM (inactive) | GI50 [3]: 3.5 µM (inactive) | GI50 [23]: > 10 µM (inactive) | GI50 [24]: 9.79 µM (inactive) | GI50 [4]: > 10 µM (inactive) | GI50 [25]: > 10 µM (inactive) | GI50 [26]: > 10 µM (inactive) | GI50 [27]: > 10 µM (inactive) | GI50 [49]: 8.34 µM (inactive) | GI50 [5]: > 10 µM (inactive) | GI50 [29]: > 10 µM (inactive) | GI50 [30]: > 10 µM (inactive) | GI50 [31]: > 10 µM (inactive) | GI50 [6]: 9.62 µM (inactive) | GI50 [32]: > 10 µM (inactive) | GI50 [50]: 8.79 µM | GI50 [56]: > 10 µM (inactive) | GI50 [36]: 4.6 µM (inactive) | GI50 [37]: > 10 µM (inactive) | GI50 [39]: 8.53 µM (inactive) | GI50 [51]: 4.12 µM (inactive) | GI50 [8]: > 10 µM (inactive) | GI50 [40]: 5.37 µM (inactive) | GI50 [41]: 7.8 µM (inactive) | GI50 [9]: 4.32 µM (inactive) | GI50 [10]: > 10 µM (inactive) | GI50 [11]: > 10 µM (inactive) | GI50 [12]: 3.79 µM (inactive) | GI50 [53]: > 10 µM (inactive) | GI50 [57]: > 10 µM (inactive) | GI50 [58]: 9.31 µM (inactive) | GI50 [13]: > 10 µM (inactive) | GI50 [14]: > 10 µM (inactive) | GI50 [54]: > 10 µM (inactive) | GI50 [55]: > 10 µM (inactive) | GI50 [45]: > 10 µM (inactive) | GI50 [46]: > 10 µM (inactive) | GI50 [20]: > 10 µM (inactive)
